Experimental data published in patent publication US7790896B2, “RNA-selective probes for live cell imaging of nuclear structure and function” (New York University, priority 2006, dated 2010).

Columns and labels:
[1] = Fluorescence spectrum in TE buffer of dyes selected from live cell imaging; type: physicochemical; conditions: dye 10 μM in TE buffer
Protocol: (§1) The fluorescence spectra data in the primary screening and selected dyes titration assay study was obtained by Gemini XS plate reader. RNA solution was prepared right before the assay experiments to avoid possible degradation and contamination. In the primary screening, 1 mg/mL RNA (type VI from torula yeast) buffer solution was used. Point scans were carried out first using five Ex/Em point sets ([…], 400/500, 450/550, 500/600, 550/650 nm). Spectra scans were then carried out for the selected dyes. Excitation wavelengths were set at 350 nm, 400 nm, 450 nm, 500 nm, and 550 nm and the emission wavelengths were scanned. RNA (16S- and 23S-ribosomal from E. coli) and DNA (salmon testes) titration experiments and quantum yield/extinction coefficient determination for the three best dyes were carried out by the plate reader as well. Excitation λmax obtained from F-2500 Hitachi Fluorophotometer was used. Absorbance wavelength was determined by SpectraMax Plus^384 absorbance plate reader. […] was chosen as standard and 480 nm was used as excitation wavelength in the scanning for quantum yield determination.

[2] = system: RNA (Type VI from torula yeast); assay: In vitro solution assay (primary screening): fluorescent emission fold change upon binding to RNA; conditions: dye 10 μM, RNA 500 μg/mL in TE buffer
Protocol: as §1
The screening strategy used in this study is illustrated in FIG. 2. Both in vitro RNA assays and live cell imaging methods were utilized in the primary screening of the dye library. Selective binding of the dye to RNA in solution was the primary criterion for selecting lead compounds for subsequent bioimaging studies, Herein, the library dyes' fluorescent emission intensity fold change upon binding to RNA was measured in solution. Dyes showing five-fold or higher emission changes in the presence of RNA were selected (Table 3). Note the dyes listed are identified by the building blocks I and II from Table 2. For example, A4 is the product made by reacting compound A from the list of Building block I and compound 4 from the list of Building block II.

COc1ccc2c(ccc(C=Cc3ccc4c5c(cccc35)CC4)[n+]2C)c1 [Dye F118]
SPECTRUM EM [1]: 590 nm | SPECTRUM EX [1]: 450 nm

COc1ccc2c(ccc(C=Cc3ccccc3Br)[n+]2C)c1 [Dye F47]
SPECTRUM EM [1]: 470 nm | SPECTRUM EX [1]: 350 nm

C[n+]1ccc(C=Cc2c(O)ccc3ccccc23)cc1 [Dye A42]
Em(nm) [2]: 560 nm | Ex(nm) [2]: 450 nm | Fold (fluorescent emission fold changes to RNA) [2]: 10

C[n+]1c(C=Cc2ccc3c(c2)OCO3)ccc2ccccc21 [Dye E43]
Em(nm) [2]: 560 nm | Ex(nm) [2]: 450 nm | Fold (fluorescent emission fold changes to RNA) [2]: 10

COc1ccc2c(ccc(/C=C/c3ccco3)[n+]2C)c1 [Dye F45]
SPECTRUM EM [1]: 490 nm | SPECTRUM EX [1]: 400 nm

COc1ccc2c(ccc(/C=C/c3c[nH]c4ccccc34)[n+]2C)c1 [Dye F4]
Em(nm) [2]: 560 nm | Ex(nm) [2]: 450 nm | Fold (fluorescent emission fold changes to RNA) [2]: 62

Cn1c(/C=C/c2cc[n+](C)c3ccccc23)cc2ccccc21 [Dye D108]
Em(nm) [2]: 630 nm | Ex(nm) [2]: 500 nm | Fold (fluorescent emission fold changes to RNA) [2]: 21

COc1ccc(-c2ccc(/C=C/c3cccc[n+]3C)o2)cc1Cl [Dye B139]
SPECTRUM EM [1]: 570 nm | SPECTRUM EX [1]: 450 nm

COc1ccc2c(ccc(C=Cc3cc(C(C)(C)C)ccc3O)[n+]2C)c1 [Dye F73]
SPECTRUM EM [1]: 490 nm | SPECTRUM EX [1]: 400 nm

COc1ccc2c(ccc(/C=C/c3ccc(Br)s3)[n+]2C)c1 [Dye F77]
SPECTRUM EM [1]: 440 nm | SPECTRUM EX [1]: 350 nm

COc1ccc(Oc2cccc(C=Cc3ccc4cc(OC)ccc4[n+]3C)c2)cc1 [Dye F83]
SPECTRUM EM [1]: 460 nm | SPECTRUM EX [1]: 350 nm

COc1ccc2c(ccc(/C=C/c3ccc(OC)c4ccccc34)[n+]2C)c1 [Dye F41]
SPECTRUM EM [1]: 590 nm | SPECTRUM EX [1]: 450 nm

C[n+]1c(C=Cc2cc(C(C)(C)C)ccc2O)ccc2ccccc21 [Dye E73]
SPECTRUM EM [1]: 550 nm | SPECTRUM EX [1]: 450 nm

CN(C)c1ccc(C=Cc2cc[n+](C)cc2)cc1 [Dye A22]
Em(nm) [2]: 610 nm | Ex(nm) [2]: 500 nm | Fold (fluorescent emission fold changes to RNA) [2]: 28

COc1ccc2c(ccc(C=Cc3ccc(N(C)CCO)cc3)[n+]2C)c1 [Dye F10]
Em(nm) [2]: 630 nm | Ex(nm) [2]: 500 nm | Fold (fluorescent emission fold changes to RNA) [2]: 38

CCOc1cccc(C=Cc2ccc3cc(OC)ccc3[n+]2C)c1O [Dye F104]
SPECTRUM EM [1]: 460 nm | SPECTRUM EX [1]: 350 nm

COc1ccc2c(ccc(/C=C/C3CCCN3C)[n+]2C)c1 (stereo not drawn) [Dye F74]
SPECTRUM EM [1]: 550 nm | SPECTRUM EX [1]: 450 nm

CCN(CC)c1ccc(/C=C/c2cccc(C)[n+]2C)cc1 [Dye C92]
Em(nm) [2]: 630 nm | Ex(nm) [2]: 500 nm | Fold (fluorescent emission fold changes to RNA) [2]: 15

Cc1ccc2ccccc2c1/C=C/c1cc[n+](C)c2ccccc12 [Dye D143]
SPECTRUM EM [1]: 530 nm | SPECTRUM EX [1]: 400 nm

CCN(CC)c1ccc(C=Cc2ccc3cc(OC)ccc3[n+]2C)cc1 [Dye F92]
Em(nm) [2]: 640 nm | Ex(nm) [2]: 500 nm | Fold (fluorescent emission fold changes to RNA) [2]: 20

COc1cc(OC)c(OC)cc1C=Cc1cccc(C)[n+]1C [Dye C8]
Em(nm) [2]: 570 nm | Ex(nm) [2]: 450 nm | Fold (fluorescent emission fold changes to RNA) [2]: 9

COc1cc(OC)c(C=Cc2cc[n+](C)cc2)c(OC)c1 [Dye A144]
Em(nm) [2]: 530 nm | Ex(nm) [2]: 450 nm | Fold (fluorescent emission fold changes to RNA) [2]: 26

CCN(CC)c1ccc(/C=C/c2cccc[n+]2C)c(C#N)c1 [Dye B132]
Em(nm) [2]: 590 nm | Ex(nm) [2]: 500 nm | Fold (fluorescent emission fold changes to RNA) [2]: 28

COc1ccc2c(ccc(C=Cc3ccc(N(C)CCC#N)cc3)[n+]2C)c1 [Dye F9]
Em(nm) [2]: 620 nm | Ex(nm) [2]: 500 nm | Fold (fluorescent emission fold changes to RNA) [2]: 86

CN(CCC#N)c1ccc(/C=C/c2cc[n+](C)cc2)cc1 [Dye A9]
Em(nm) [2]: 600 nm | Ex(nm) [2]: 500 nm | Fold (fluorescent emission fold changes to RNA) [2]: 21

COc1cc(/C=C/c2cccc[n+]2C)c(OCc2ccccc2)cc1OC [Dye B156]
Em(nm) [2]: 560 nm | Ex(nm) [2]: 450 nm | Fold (fluorescent emission fold changes to RNA) [2]: 54

CCN(CC)c1ccc(C=Cc2cccc[n+]2C)cc1 [Dye B92]
Em(nm) [2]: 600 nm | Ex(nm) [2]: 500 nm | Fold (fluorescent emission fold changes to RNA) [2]: 28

CCn1c2ccccc2c2cc(C=Cc3cc[n+](C)c4ccccc34)ccc21 [Dye D107]
Em(nm) [2]: 620 nm | Ex(nm) [2]: 500 nm | Fold (fluorescent emission fold changes to RNA) [2]: 13

CCN(CC)c1ccc(C=Cc2cc[n+](C)cc2)c(C#N)c1 [Dye A132]
Em(nm) [2]: 610 nm | Ex(nm) [2]: 500 nm | Fold (fluorescent emission fold changes to RNA) [2]: 17

Cc1cccc(/C=C/c2ccc(N(C)CCC#N)cc2)[n+]1C [Dye C9]
Em(nm) [2]: 610 nm | Ex(nm) [2]: 500 nm | Fold (fluorescent emission fold changes to RNA) [2]: 9

COc1ccc2c(ccc(C=Cc3cc(OC)c(OC)cc3OC)[n+]2C)c1.[I-] [Dye F8]
Em(nm) [2]: 610 nm | Ex(nm) [2]: 500 nm | Fold (fluorescent emission fold changes to RNA) [2]: 52

COc1cc(OC)c(OC)cc1/C=C/c1cc[n+](C)cc1 [Dye A8]
Em(nm) [2]: 580 nm | Ex(nm) [2]: 450 nm | Fold (fluorescent emission fold changes to RNA) [2]: 37

COc1ccc2c(ccc(/C=C/c3cc4ccccc4n3C)[n+]2C)c1 [Dye F108]
Em(nm) [2]: 610 nm | Ex(nm) [2]: 500 nm | Fold (fluorescent emission fold changes to RNA) [2]: 27

CCN(CC)c1ccc(C=Cc2ccc3cc(OC)ccc3[n+]2C)c(C#N)c1 [Dye F132]
Em(nm) [2]: 640 nm | Ex(nm) [2]: 500 nm | Fold (fluorescent emission fold changes to RNA) [2]: 14

Cn1c(C=Cc2ccc3ccccc3[n+]2C)cc2ccccc21 [Dye E108]
Em(nm) [2]: 620 nm | Ex(nm) [2]: 500 nm | Fold (fluorescent emission fold changes to RNA) [2]: 21

Cc1cccc(/C=C/c2ccc(N(C)C)cc2)[n+]1C [Dye C22]
Em(nm) [2]: 630 nm | Ex(nm) [2]: 500 nm | Fold (fluorescent emission fold changes to RNA) [2]: 6

C[n+]1c(C=Cc2cc(Br)c(Cl)c(Br)c2)ccc2ccccc21 [Dye E111]
Em(nm) [2]: 620 nm | Ex(nm) [2]: 500 nm | Fold (fluorescent emission fold changes to RNA) [2]: 17

C[n+]1ccc(/C=C/c2c[nH]c3ccccc23)cc1 [Dye A4]
Em(nm) [2]: 540 nm | Ex(nm) [2]: 450 nm | Fold (fluorescent emission fold changes to RNA) [2]: 11

Cn1c(/C=C/c2cc[n+](C)cc2)cc2ccccc21 [Dye A108]
Em(nm) [2]: 590 nm | Ex(nm) [2]: 450 nm | Fold (fluorescent emission fold changes to RNA) [2]: 8

Cc1cc(C=Cc2cc[n+](C)cc2)c(C)n1-c1cccc(C(F)(F)F)c1 [Dye A121]
Em(nm) [2]: 540 nm | Ex(nm) [2]: 450 nm | Fold (fluorescent emission fold changes to RNA) [2]: 28

CN(C)c1ccc(C=Cc2cc[n+](C)cc2)c2ccccc12 [Dye A24]
Em(nm) [2]: 660 nm | Ex(nm) [2]: 500 nm | Fold (fluorescent emission fold changes to RNA) [2]: 103

Cc1cccc(C=Cc2cc3ccccc3n2C)[n+]1C [Dye C108]
Em(nm) [2]: 580 nm | Ex(nm) [2]: 450 nm | Fold (fluorescent emission fold changes to RNA) [2]: 8

COc1cc(/C=C/c2cc[n+](C)cc2)c(OCc2ccccc2)cc1OC [Dye A156]
Em(nm) [2]: 580 nm | Ex(nm) [2]: 450 nm | Fold (fluorescent emission fold changes to RNA) [2]: 42

CN(CCO)c1ccc(/C=C/c2cc[n+](C)cc2)cc1 [Dye A10]
Em(nm) [2]: 610 nm | Ex(nm) [2]: 500 nm | Fold (fluorescent emission fold changes to RNA) [2]: 23
